# PubChem BioAssay (NCI)
#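 1) Cells in 96-well plates. 2) Compound, 48 h, 5 concentrations. 3) Linear interpolation between surrounding doses. 4) Unreached endpoint = highest concentration. GI50 = concentration required for 50% inhibition of growth. Definition used: TGI = concentration required for complete inhibition of growth.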
# Key:
# Test in all cases: inhibition of tumour cell growth, NCI panel, 48 h
# SK-MEL-2 melanoma = test system: SK-MEL-2 melanoma
# UACC-257 melanoma = test system: UACC-257 melanoma
# HT29 colon = test system: HT29 colon
# PC-3 prostate = test system: PC-3 prostate
# HOP-62 NSCLC = test system: HOP-62 NSCLC
# SF-539 CNS = test system: SF-539 CNS
# CAKI-1 renal = test system: CAKI-1 renal
# NCI-H23 lung = test system: NCI-H23 lung
# MDA-MB-435 = test system: MDA-MB-435
# LOX IMVI melanoma = test system: LOX IMVI melanoma
# MOLT-4 leukemia = test system: MOLT-4 leukemia
# BT-549 breast = test system: BT-549 breast
# HOP-92 NSCLC = test system: HOP-92 NSCLC
# RPMI-8226 leukemia = test system: RPMI-8226 leukemia
# KM12 colon = test system: KM12 colon
# MCF7 breast = test system: MCF7 breast
# DU-145 prostate = test system: DU-145 prostate
# OVCAR-5 ovarian = test system: OVCAR-5 ovarian
# UACC-62 melanoma = test system: UACC-62 melanoma
# COLO 205 colon = test system: COLO 205 colon
# OVCAR-8 ovarian = test system: OVCAR-8 ovarian
# SN12C renal = test system: SN12C renal
# HCT-116 colon = test system: HCT-116 colon
# NCI-H460 lung = test system: NCI-H460 lung
# SNB-75 CNS = test system: SNB-75 CNS
# NCI-H522 lung = test system: NCI-H522 lung
# IGROV1 ovarian = test system: IGROV1 ovarian
# ACHN renal = test system: ACHN renal
# 786-0 renal = test system: 786-0 renal
compound,measurement,setting,value
c1cc(N2CCCC2)c2nc(-c3[nH]ncc3Nc3ncnc4[nH]ccc34)[nH]c2c1,GI50,SK-MEL-2 melanoma,53 nM
same,TGI,SK-MEL-2 melanoma,292 nM
same,GI50,UACC-257 melanoma,150 nM
same,TGI,UACC-257 melanoma,1110 nM
same,GI50,HT29 colon,371 nM
same,TGI,HT29 colon,3250 nM
same,GI50,PC-3 prostate,26.1 nM
same,TGI,PC-3 prostate,446 nM
same,GI50,HOP-62 NSCLC,100 nM
same,TGI,HOP-62 NSCLC,2030 nM
same,GI50,SF-539 CNS,20.6 nM
same,TGI,SF-539 CNS,256 nM
same,GI50,CAKI-1 renal,22 nM
same,TGI,CAKI-1 renal,253 nM
same,GI50,NCI-H23 lung,69.4 nM
same,TGI,NCI-H23 lung,680 nM
same,GI50,MDA-MB-435,94.4 nM
same,TGI,MDA-MB-435,511 nM
same,GI50,LOX IMVI melanoma,25.4 nM
same,TGI,LOX IMVI melanoma,342 nM
same,GI50,MOLT-4 leukemia,33.8 nM
same,TGI,MOLT-4 leukemia,4830 nM
same,GI50,BT-549 breast,67.2 nM
same,TGI,BT-549 breast,736 nM
same,GI50,HOP-92 NSCLC,29.8 nM
same,TGI,HOP-92 NSCLC,99.9 nM
same,GI50,RPMI-8226 leukemia,254 nM
same,TGI,RPMI-8226 leukemia,1060 nM
same,GI50,KM12 colon,79.3 nM
same,TGI,KM12 colon,459 nM
same,GI50,MCF7 breast,80.6 nM
same,TGI,MCF7 breast,677 nM
same,GI50,DU-145 prostate,85.3 nM
same,TGI,DU-145 prostate,777 nM
same,GI50,OVCAR-5 ovarian,115 nM
same,TGI,OVCAR-5 ovarian,2200 nM
same,GI50,UACC-62 melanoma,55.4 nM
same,TGI,UACC-62 melanoma,196 nM
same,GI50,COLO 205 colon,285 nM
same,TGI,COLO 205 colon,2030 nM
same,GI50,OVCAR-8 ovarian,84.7 nM
same,TGI,OVCAR-8 ovarian,1360 nM
same,GI50,SN12C renal,54.3 nM
same,TGI,SN12C renal,793 nM
same,GI50,HCT-116 colon,25.5 nM
same,TGI,HCT-116 colon,1610 nM
same,GI50,NCI-H460 lung,90.8 nM
same,TGI,NCI-H460 lung,416 nM
same,TGI,SNB-75 CNS,348 nM
same,GI50,NCI-H522 lung,87.3 nM
same,TGI,NCI-H522 lung,1120 nM
same,GI50,IGROV1 ovarian,39.8 nM
same,TGI,IGROV1 ovarian,239 nM
same,GI50,ACHN renal,30.2 nM
same,TGI,ACHN renal,679 nM
same,GI50,786-0 renal,34.1 nM
same,TGI,786-0 renal,560 nM
